PubChem BioAssay (NCI)
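Each compound was tested at five concentrations against cells in 96-well plates for 48 hours. Abbreviation: GI50, concentration required for 50% inhibition of growth. TGI: concentration producing complete growth inhibition.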

Key:
Assay in all cases: NCI-60 cell line screen, 48 h
CCRF-CEM leukemia = test system: CCRF-CEM leukemia
MCF7 breast = test system: MCF7 breast
NCI/ADR-RES ovarian = test system: NCI/ADR-RES ovarian
T-47D breast = test system: T-47D breast
U251 CNS = test system: U251 CNS
SF-539 CNS = test system: SF-539 CNS
PC-3 prostate = test system: PC-3 prostate
A549 NSCLC = test system: A549 NSCLC
NCI-H522 lung = test system: NCI-H522 lung
MALME-3M melanoma = test system: MALME-3M melanoma

| Structure (SMILES) | TGI (CCRF-CEM leukemia) [µM] | TGI (MCF7 breast) [µM] | TGI (NCI/ADR-RES ovarian) [µM] | TGI (T-47D breast) [µM] | TGI (U251 CNS) [µM] | TGI (SF-539 CNS) [µM] | TGI (PC-3 prostate) [µM] | TGI (A549 NSCLC) [µM] | TGI (NCI-H522 lung) [µM] | TGI (MALME-3M melanoma) [µM] | GI50 (MCF7 breast) [µM] | GI50 (NCI/ADR-RES ovarian) [µM] | GI50 (MALME-3M melanoma) [µM] | GI50 (T-47D breast) [µM] | GI50 (U251 CNS) [µM] | GI50 (SF-539 CNS) [µM] | GI50 (PC-3 prostate) [µM] | GI50 (NCI-H522 lung) [µM] |
| --- | --- | --- | --- | --- | --- | --- | --- | --- | --- | --- | --- | --- | --- | --- | --- | --- | --- | --- |
| O=C1C(Cl)=C(N(C(=O)c2ccccc2)C(=O)c2ccccc2)C(=O)c2ccccc21 | 18.6 | 24 | > 100 | 32.3 | > 100 | 19.6 | > 100 | > 100 | 43.7 | – | – | – | – | – | – | – | – | – |
| Nc1ncn2c(n1)nc1ccccc12 | > 100 | > 100 | > 100 | > 100 | > 100 | > 100 | > 100 | > 100 | > 100 | > 100 | – | – | – | – | – | – | – | – |
| COc1ccccc1NC(=O)CC(=O)N1N=C(N2c3ccccc3Sc3ccccc32)CC1c1ccccc1 (centres undefined) | > 100 | > 100 | > 100 | > 100 | > 100 | > 100 | > 100 | > 100 | > 100 | – | – | – | – | – | – | – | – | – |
| O=C(N=c1ccc2nc(=O)[nH]n(O)c-2c1)C(F)(F)F | > 100 | > 100 | > 100 | > 100 | > 100 | > 100 | > 100 | > 100 | > 100 | – | – | – | – | – | – | – | – | – |
| O=C(c1ccccc1)C1S(=O)(=O)OCCOS1(=O)=O | > 100 | – | – | – | – | > 100 | – | > 100 | > 100 | > 100 | – | – | – | – | – | – | – | – |
| O=C1CC(c2ccccc2)=Nc2ccccc2N1 | > 100 | – | – | – | > 100 | > 100 | – | > 100 | > 100 | > 100 | – | – | – | – | – | – | – | – |
| Cc1n[nH]c(=O)n1/N=C\c1ccccc1 | > 100 | > 100 | > 100 | – | > 100 | > 100 | > 100 | > 100 | > 100 | > 100 | – | – | – | – | – | – | – | – |
| O=C1/C=C(/c2ccc(O)cc2)[C@@H](O)Cc2ccc(O)cc2O1 | – | – | – | – | > 100 | > 100 | – | > 100 | > 100 | > 100 | – | – | – | – | – | – | – | – |
| CCOC(=O)/C(=C/c1ccc(C(=O)OC)cc1)N(CC)CC | 93.7 | – | – | – | > 100 | 60.1 | – | > 100 | > 100 | > 100 | – | – | – | – | – | – | – | – |
| NC(CSSCC(N)=NCC12CC3CC(CC(C3)C1)C2)=NCC12CC3CC(CC(C3)C1)C2 | – | > 100 | 33.8 | > 100 | 29 | 34.3 | 29.9 | 31.3 | 38.6 | 33.6 | – | – | – | – | – | – | – | – |
| CCOC(=O)c1nc2ccc(C(F)(F)F)cc2nc1Nc1ccc(Cl)c(Cl)c1 | > 100 | > 100 | > 100 | > 100 | – | > 100 | > 100 | > 100 | > 100 | > 100 | – | – | – | – | – | – | – | – |
| Cc1sc2c(c1C)/C(=N\O)c1cccn1-2 | > 100 | > 100 | > 100 | > 100 | 69.7 | – | > 100 | > 100 | > 100 | > 100 | – | – | – | – | – | – | – | – |
| CC(=O)Oc1c(N2CCCCC2)c(C(=O)c2ccccc2)c(O)c2ccn(N(C)C)c12 | 76.1 | 30.6 | 42.3 | – | 33.5 | 35.9 | 33.7 | > 100 | – | 31.8 | – | – | – | – | – | – | – | – |
| Cc1c(N=Nc2ccccc2)c(C)n(C2OC(CO)C(O)C(O)C2O)c(=S)c1C#N (centres undefined) | > 100 | > 100 | > 100 | 95.8 | 87.2 | 57.8 | 78.6 | > 100 | – | > 100 | – | – | – | – | – | – | – | – |
| COc1c2c(c3ccccc3c1O)C1C=CC2C1 (centres undefined) | 97.6 | – | – | – | 23.9 | 29 | – | 36.6 | 29.3 | 18.8 | – | – | – | – | – | – | – | – |
| O=C(O)c1ccc(C2=Cc3cc(Cl)ccc3OC2)cc1 | > 100 | – | – | – | > 100 | > 100 | – | > 100 | > 100 | > 100 | – | – | – | – | – | – | – | – |
| CCN(CC)CCN1C(=O)c2c(c3c4ccccc4[nH]c3c3ccc4ccccc4c23)C1=O | – | 1.96 | 4.15 | 38.9 | 3.06 | 3.08 | 3.25 | – | 3.54 | 3.46 | 0.0836 | 1.59 | 1.79 | 13 | 1.53 | 1.7 | 1.44 | 1.46 |
| O=c1oc2ccccc2cc1-c1cn2c(n1)sc1ccccc12 | > 100 | 77.4 | > 100 | > 100 | > 100 | > 100 | > 100 | > 100 | > 100 | – | – | – | – | – | – | – | – | – |
| NC1=NS(=O)(=O)Nc2nc(-c3ccccc3)[nH]c21 | > 100 | – | – | – | > 100 | > 100 | – | > 100 | > 100 | > 100 | – | – | – | – | – | – | – | – |
| CC(C)=CCc1[nH]c2ccccc2c1C1=C(O)C(=O)C(c2c(CC=C(C)C)[nH]c3ccccc23)=C(O)C1=O | 6.83 | 9.4 | 17.3 | 25 | 6.52 | – | 4.72 | 11.2 | 5.58 | 4.5 | – | – | – | – | – | – | – | – |
| Cc1cccc(N2C(=O)C3c4[nH]c5ccccc5c4C4CCC(C(C)(C)C)CC4C3C2=O)c1 (centres undefined) | 23.5 | 24.5 | 32.2 | > 100 | 47.8 | – | 24.8 | 22.3 | 24.3 | 28 | – | – | – | – | – | – | – | – |
| Cn1c(CO)ccc1-c1ccc(-c2ccc[se]2)[se]1 | > 60.6 | > 52.4 | > 100 | > 100 | – | 31.7 | > 100 | > 100 | > 100 | > 100 | – | – | – | – | – | – | – | – |
| CC(=O)NC(C)(C)C1CCC(C)=C(c2ccccc2)C1 (centres undefined) | > 100 | > 100 | – | > 100 | > 100 | > 100 | > 100 | > 100 | > 100 | – | – | – | – | – | – | – | – | – |
| O=[N+]([O-])C(/C=N/Nc1ccccc1)/C=N/Nc1ccccc1 | > 100 | – | – | – | > 100 | > 100 | – | > 100 | > 100 | > 100 | – | – | – | – | – | – | – | – |
| CC1(C)CCC(C)(C)C1C(=O)NC(O)C(=O)O (centres undefined) | > 100 | > 100 | > 100 | > 100 | > 100 | > 100 | > 100 | > 100 | – | – | – | – | – | – | – | – | – | – |
